# Data published in patent US8722578B2, “Spiroheterocyclic pyrrolidinedione herbicidal compositions” (Syngenta Participations AG, priority 2008, dated 2014).
# Tests used:
# [1] = test system: Setaria faberi (SETFA); experiment: Example A pre-emergence herbicidal activity, glasshouse pot test; assay type: in vivo; details: 480 h, rate 250 g/ha, evaluated 20 days after spraying, read-out: SETFA pre-emergence activity (100=total damage to plant; 0=no damage to plant)
# Experimental: (§1) Monocotyledonous and dicotyledonous test plants are sown in standard soil in pots. After cultivation for one day (pre-emergence) or after 10 days cultivation (post-emergence) under controlled conditions in a glasshouse, the plants are sprayed with an aqueous spray solution derived from the formulation of the technical active ingredient in 0.6 ml acetone and 45 ml formulation solution containing 10.6% Emulsogen EL (Registry number 61791-12-6), 42.2% N-methylpyrrolidone, 42.2% dipropylene glycol monomethyl ether (Registry number 34590-94-8) and 0.2% X-77 (Registry number 11097-66-8). The test plants are then grown in a greenhouse under optimum conditions until, 15 days later for post-emergence and 20 days for pre-emergence, the test is evaluated (100=total damage to plant; 0=no damage to plant). Test Plants: Alopecurus myosuroides (ALOMY), Avena fatua (AVEFA), Lolium perenne (LOLPE), Setaria faberi (SETFA), Digitaria sanguinalis (DIGSA), Echinochloa crus-galli (ECHCG) Pre-Emergence Activity
# [2] = test system: Avena fatua (AVEFA); experiment: as above; assay type: in vivo; details: 480 h, rate 250 g/ha, evaluated 20 days after spraying, read-out: AVEFA pre-emergence activity (100=total damage to plant; 0=no damage to plant)
# Experimental: as §1
# [3] = test system: Lolium perenne (LOLPE); experiment: as above; assay type: in vivo; details: 480 h, rate 250 g/ha, evaluated 20 days after spraying, read-out: LOLPE pre-emergence activity (100=total damage to plant; 0=no damage to plant)
# Experimental: as §1
# [4] = test system: Digitaria sanguinalis (DIGSA); experiment: as above; assay type: in vivo; details: 480 h, rate 250 g/ha, evaluated 20 days after spraying, read-out: DIGSA pre-emergence activity (100=total damage to plant; 0=no damage to plant)
# Experimental: as §1
# [5] = test system: Alopecurus myosuroides (ALOMY); experiment: as above; assay type: in vivo; details: 480 h, rate 250 g/ha, evaluated 20 days after spraying, read-out: ALOMY pre-emergence activity (100=total damage to plant; 0=no damage to plant)
# Experimental: as §1
# [6] = test system: Echinochloa crus-galli (ECHCG); experiment: as above; assay type: in vivo; details: 480 h, rate 250 g/ha, evaluated 20 days after spraying, read-out: ECHOG pre-emergence activity (100=total damage to plant; 0=no damage to plant)
# Experimental: as §1
# [7] = test system: Setaria faberi (SETFA); experiment: Example B pre-emergence herbicidal activity, glasshouse pot test; assay type: in vivo; details: 312 h, first table (headed Post-Emergence, taken as pre-emergence), evaluated after 13 days, read-out: SETFA activity (100=total damage to plant; 0=no damage to plant)
# Experimental: (§2) Seeds of a variety of test species are sown in standard soil in pots. After cultivation for one day (pre-emergence) or after 8 days cultivation (post-emergence) under controlled conditions in a glasshouse (at 24/16° C., day/night; 14 hours light; 65% humidity), the plants are sprayed with an aqueous spray solution derived from the formulation of the technical active ingredient in acetone/water (50:50) solution containing 0.5% Tween 20 (polyoxyethelyene sorbitan monolaurate, CAS RN 9005-64-5). The test plants are then grown in a glasshouse under controlled conditions in a glasshouse (at 24/16° C., day/night; 14 hours light; 65% humidity) and watered twice daily. After 13 days for pre and post-emergence, the test is evaluated (100=total damage to plant; 0=no damage to plant). Test Plants: Setaria faberi (SETFA), Alopecurus myosuroides (ALOMY), Echinochloa crus-galli (ECHCG), Avena fatua (AVEFA)
# [8] = test system: Avena fatua (AVEFA); experiment: as above; assay type: in vivo; details: 312 h, first table (headed Post-Emergence, taken as pre-emergence), evaluated after 13 days, read-out: AVEFA activity (100=total damage to plant; 0=no damage to plant)
# Experimental: as §2
# [9] = test system: Alopecurus myosuroides (ALOMY); experiment: as above; assay type: in vivo; details: 312 h, first table (headed Post-Emergence, taken as pre-emergence), evaluated after 13 days, read-out: ALOMY activity (100=total damage to plant; 0=no damage to plant)
# Experimental: as §2
# [10] = test system: Echinochloa crus-galli (ECHCG); experiment: as above; assay type: in vivo; details: 312 h, first table (headed Post-Emergence, taken as pre-emergence), evaluated after 13 days, read-out: ECHCG activity (100=total damage to plant; 0=no damage to plant)
# Experimental: as §2
# [11] = test system: Setaria faberi (SETFA); experiment: Example B post-emergence herbicidal activity, glasshouse pot test; assay type: in vivo; details: 312 h, evaluated after 13 days, read-out: SETFA post-emergence activity (100=total damage to plant; 0=no damage to plant)
# Procedure, shortened: (§3)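 Sow seeds in pots of standard soil and grow at 24/16° C day/night, 14 h light, 65% humidity. Spray at 1 day (pre-emergence) or 8 days (post-emergence) with compound in acetone/water (50:50), 0.5% Tween 20. Water twice daily, then score plant damage 0–100 after 13 days.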
# [12] = test system: Avena fatua (AVEFA); experiment: as above; assay type: in vivo; details: 312 h, evaluated after 13 days, read-out: AVEFA post-emergence activity (100=total damage to plant; 0=no damage to plant)
# Procedure, shortened: as §3
# [13] = test system: Alopecurus myosuroides (ALOMY); experiment: as above; assay type: in vivo; details: 312 h, evaluated after 13 days, read-out: ALOMY post-emergence activity (100=total damage to plant; 0=no damage to plant)
# Procedure, shortened: as §3
# [14] = test system: Echinochloa crus-galli (ECHCG); experiment: as above; assay type: in vivo; details: 312 h, evaluated after 13 days, read-out: ECHCG post-emergence activity (100=total damage to plant; 0=no damage to plant)
# Procedure, shortened: as §3
# [15] = test system: Setaria faberi (SETFA); experiment: Example A post-emergence herbicidal activity, glasshouse pot test; assay type: in vivo; details: 360 h, rate 125 g/ha, evaluated 15 days after spraying, read-out: SETFA post-emergence activity (100=total damage to plant; 0=no damage to plant)
# Experimental: as §1, with “Post-Emergence” for “Pre-Emergence”
# [16] = test system: Avena fatua (AVEFA); experiment: as above; assay type: in vivo; details: 360 h, rate 125 g/ha, evaluated 15 days after spraying, read-out: AVEFA post-emergence activity (100=total damage to plant; 0=no damage to plant)
# Experimental: as §1, with “Post-Emergence” for “Pre-Emergence”
# [17] = test system: Lolium perenne (LOLPE); experiment: as above; assay type: in vivo; details: 360 h, rate 125 g/ha, evaluated 15 days after spraying, read-out: LOLPE post-emergence activity (100=total damage to plant; 0=no damage to plant)
# Experimental: as §1, with “Post-Emergence” for “Pre-Emergence”
# [18] = test system: Digitaria sanguinalis (DIGSA); experiment: as above; assay type: in vivo; details: 360 h, rate 125 g/ha, evaluated 15 days after spraying, read-out: DIGSA post-emergence activity (100=total damage to plant; 0=no damage to plant)
# Experimental: as §1, with “Post-Emergence” for “Pre-Emergence”
# [19] = test system: Alopecurus myosuroides (ALOMY); experiment: as above; assay type: in vivo; details: 360 h, rate 125 g/ha, evaluated 15 days after spraying, read-out: ALOMY post-emergence activity (100=total damage to plant; 0=no damage to plant)
# Experimental: as §1, with “Post-Emergence” for “Pre-Emergence”
# [20] = test system: Echinochloa crus-galli (ECHCG); experiment: as above; assay type: in vivo; details: 360 h, rate 125 g/ha, evaluated 15 days after spraying, read-out: ECHOG post-emergence activity (100=total damage to plant; 0=no damage to plant)
# Experimental: as §1, with “Post-Emergence” for “Pre-Emergence”
smiles,measurement,setting,value
C=CCOC(=O)OC1=C(c2c(C)cc(C)cc2C)C(=O)NC12CCN(OC)CC2 [Compound P43],pest or weed control at 250 g/ha,[1],80%
same,pest or weed control at 250 g/ha,[2],70%
same,pest or weed control at 250 g/ha,[3],70%
same,pest or weed control at 250 g/ha,[4],90%
same,pest or weed control at 250 g/ha,[5],80%
same,pest or weed control at 250 g/ha,[6],80%
same,melting point,,174 to 176 °C
same,pest or weed control at 1000 g/ha,[7]; rate 1000 g/ha,100%
same,pest or weed control at 1000 g/ha,[8]; rate 1000 g/ha,90%
same,pest or weed control at 1000 g/ha,[9]; rate 1000 g/ha,100%
same,pest or weed control at 1000 g/ha,[10]; rate 1000 g/ha,100%
same,pest or weed control at 1000 g/ha,[11]; rate 1000 g/ha,90%
same,pest or weed control at 1000 g/ha,[12]; rate 1000 g/ha,90%
same,pest or weed control at 1000 g/ha,[13]; rate 1000 g/ha,90%
same,pest or weed control at 1000 g/ha,[14]; rate 1000 g/ha,90%
same,pest or weed control at 125 g/ha,[15],50%
same,pest or weed control at 125 g/ha,[16],40%
same,pest or weed control at 125 g/ha,[17],70%
same,pest or weed control at 125 g/ha,[18],70%
same,pest or weed control at 125 g/ha,[19],60%
same,pest or weed control at 125 g/ha,[20],60%
CCOC(=O)OC1=C(c2cc(-c3ccc(Cl)cc3)c(C)cc2C)C(=O)NC12CCN(OC)CC2 [Compound P53],pest or weed control at 250 g/ha,[1],40%
same,pest or weed control at 250 g/ha,[2],30%
same,pest or weed control at 250 g/ha,[3],20%
same,pest or weed control at 250 g/ha,[4],60%
same,pest or weed control at 250 g/ha,[5],0%
same,pest or weed control at 250 g/ha,[6],50%
same,melting point,,211 to 213 °C
same,pest or weed control at 250 g/ha,[7]; rate 250 g/ha,80%
same,pest or weed control at 250 g/ha,[8]; rate 250 g/ha,0%
same,pest or weed control at 250 g/ha,[9]; rate 250 g/ha,0%
same,pest or weed control at 250 g/ha,[10]; rate 250 g/ha,0%
same,pest or weed control at 250 g/ha,[11]; rate 250 g/ha,90%
same,pest or weed control at 250 g/ha,[12]; rate 250 g/ha,30%
same,pest or weed control at 250 g/ha,[13]; rate 250 g/ha,70%
same,pest or weed control at 250 g/ha,[14]; rate 250 g/ha,90%
same,pest or weed control at 125 g/ha,[15],50%
same,pest or weed control at 125 g/ha,[16],0%
same,pest or weed control at 125 g/ha,[17],0%
same,pest or weed control at 125 g/ha,[18],60%
same,pest or weed control at 125 g/ha,[19],20%
same,pest or weed control at 125 g/ha,[20],60%
